The results in this text go back to patent US10370324B2, “Phenyl and pyridinyl hydroxamic acids” (Acetylon Pharmaceuticals, Inc., priority 2016, dated 2019).

As usually defined, the IC50 is the point on the concentration scale where inhibition reaches its midpoint. Broadly, the clearance is the rate of elimination divided by the concentration. One may read the AUC as the area under the concentration-time curve, a measure of exposure. Lower therefore signals less exposure.

The target in one data set is T1, HDAC3 (Homo sapiens, UniProt O15379).
T1 construct: purchased BPS Biosciences
T1 sequence (O15379 whole entry): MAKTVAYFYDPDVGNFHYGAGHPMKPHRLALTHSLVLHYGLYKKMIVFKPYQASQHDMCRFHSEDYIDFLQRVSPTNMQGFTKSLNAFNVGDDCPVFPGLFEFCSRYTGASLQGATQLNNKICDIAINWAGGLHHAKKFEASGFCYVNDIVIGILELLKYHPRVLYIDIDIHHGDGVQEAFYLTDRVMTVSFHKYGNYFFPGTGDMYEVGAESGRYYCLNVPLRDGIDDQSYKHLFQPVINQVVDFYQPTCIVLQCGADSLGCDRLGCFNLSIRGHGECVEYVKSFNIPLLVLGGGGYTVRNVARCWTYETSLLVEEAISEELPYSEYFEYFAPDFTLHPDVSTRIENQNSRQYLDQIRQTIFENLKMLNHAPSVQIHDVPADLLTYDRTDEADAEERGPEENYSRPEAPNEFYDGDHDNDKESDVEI
T1 sequence (Q9Y618 395-489 partner limits assumed): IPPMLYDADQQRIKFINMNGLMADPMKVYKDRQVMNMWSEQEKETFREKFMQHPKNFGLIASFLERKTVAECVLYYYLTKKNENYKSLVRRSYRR
As to the kind of experiment: HDAC enzyme assay, HDAC3. The format is biochemical. The settings on record: 0.08 ng/ml enzyme, 17 μM tripeptide substrate; given as a range. The method, then: (§1) Compounds for testing were diluted in DMSO to 50 fold the final concentration and a ten-point three-fold dilution series was made. The compounds were diluted in assay buffer (50 mM HEPES, pH 7.4, 100 mM KCl, 0.001% Tween-20, 0.05% BSA, 20 ⊐M TCEP) to 6-fold their final concentration. The HDAC enzymes (purchased from BPS Biosciences) were diluted to 1.5-fold their final concentration in assay buffer. The tripeptide substrate and trypsin at 0.05 μM final concentration were diluted in assay buffer at 6-fold their final concentration. The final enzyme concentrations used in these assays were 3.3 ng/ml (HDAC1), 0.2 ng/ml (HDAC2), 0.08 ng/ml (HDAC3) and 2 ng/ml (HDAC6). The final substrate concentrations used were 16 μM (HDAC1), 10 μM (HDAC2), 17 μM (HDAC3) and 14 μM (HDAC6).
(§2) Five μL of compounds and 20 μL of enzyme were added to wells of a black, opaque 384 well plate in duplicate. Enzyme and compound were incubated together at room temperature for 10 minutes. Five μL of substrate was added to each well, the plate was shaken for 60 seconds and placed into a Victor 2 microtiter plate reader. The development of fluorescence was monitored for 60 min and the linear rate of the reaction was calculated. The IC50 was determined using Graph Pad Prism by a four parameter curve fit.

For a further data set, the target named is T2, HDAC6 (Homo sapiens, UniProt Q9UBN7).
T2 construct: purchased BPS Biosciences
T2 sequence (Q9UBN7 1-1215): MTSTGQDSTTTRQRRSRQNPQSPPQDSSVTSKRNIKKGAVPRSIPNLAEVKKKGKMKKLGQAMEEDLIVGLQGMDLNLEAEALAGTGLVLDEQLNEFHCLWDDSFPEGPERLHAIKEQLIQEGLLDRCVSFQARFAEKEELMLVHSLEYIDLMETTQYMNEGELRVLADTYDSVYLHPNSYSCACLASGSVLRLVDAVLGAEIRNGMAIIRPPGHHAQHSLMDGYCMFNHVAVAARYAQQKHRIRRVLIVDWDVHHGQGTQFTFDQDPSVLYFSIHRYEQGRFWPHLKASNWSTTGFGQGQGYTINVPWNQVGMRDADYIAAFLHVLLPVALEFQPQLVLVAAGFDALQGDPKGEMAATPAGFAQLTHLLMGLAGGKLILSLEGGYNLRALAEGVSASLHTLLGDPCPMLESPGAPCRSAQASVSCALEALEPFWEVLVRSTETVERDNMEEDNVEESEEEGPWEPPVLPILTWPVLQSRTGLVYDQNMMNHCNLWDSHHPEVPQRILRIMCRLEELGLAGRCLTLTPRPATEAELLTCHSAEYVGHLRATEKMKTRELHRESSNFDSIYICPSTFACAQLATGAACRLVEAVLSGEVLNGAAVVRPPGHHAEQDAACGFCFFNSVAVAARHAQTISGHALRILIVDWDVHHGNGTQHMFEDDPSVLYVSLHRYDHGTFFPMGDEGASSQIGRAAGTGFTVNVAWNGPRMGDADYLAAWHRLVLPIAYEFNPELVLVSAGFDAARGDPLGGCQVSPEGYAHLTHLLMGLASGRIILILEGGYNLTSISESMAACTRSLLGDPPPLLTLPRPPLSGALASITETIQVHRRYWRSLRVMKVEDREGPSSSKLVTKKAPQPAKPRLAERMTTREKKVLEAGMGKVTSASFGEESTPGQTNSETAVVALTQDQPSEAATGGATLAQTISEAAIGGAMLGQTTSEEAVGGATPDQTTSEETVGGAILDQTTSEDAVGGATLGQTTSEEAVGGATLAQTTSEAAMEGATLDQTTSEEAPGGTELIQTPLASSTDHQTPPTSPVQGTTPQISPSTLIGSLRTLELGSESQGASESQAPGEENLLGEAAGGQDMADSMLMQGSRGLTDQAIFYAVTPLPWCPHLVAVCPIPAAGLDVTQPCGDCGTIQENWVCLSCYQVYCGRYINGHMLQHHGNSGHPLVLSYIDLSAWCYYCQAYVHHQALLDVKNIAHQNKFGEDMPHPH
As to the kind of experiment: HDAC enzyme assay, HDAC6. The format is biochemical. The conditions noted are these: 2 ng/ml enzyme, 14 μM tripeptide substrate; given as a range. How it is done:
as §1, §2

The target of another data set is T3, HDAC2 (Homo sapiens, UniProt Q92769).
T3 construct: purchased BPS Biosciences
T3 sequence (Q92769 whole entry): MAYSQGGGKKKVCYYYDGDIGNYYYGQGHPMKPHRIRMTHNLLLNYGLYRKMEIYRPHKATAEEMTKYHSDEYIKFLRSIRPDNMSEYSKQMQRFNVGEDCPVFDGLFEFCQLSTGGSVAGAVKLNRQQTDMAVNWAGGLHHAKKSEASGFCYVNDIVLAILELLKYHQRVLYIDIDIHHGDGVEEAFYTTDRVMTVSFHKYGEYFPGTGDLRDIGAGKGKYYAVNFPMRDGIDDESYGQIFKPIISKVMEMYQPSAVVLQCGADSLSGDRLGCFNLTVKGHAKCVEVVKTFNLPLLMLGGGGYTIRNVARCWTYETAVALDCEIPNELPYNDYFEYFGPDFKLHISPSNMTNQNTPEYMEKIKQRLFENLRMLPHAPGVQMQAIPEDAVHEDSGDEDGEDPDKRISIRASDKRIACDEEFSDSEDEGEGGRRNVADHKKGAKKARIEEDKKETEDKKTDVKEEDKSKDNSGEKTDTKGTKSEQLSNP
As to the kind of experiment: HDAC enzyme assay, HDAC2. The data set is classed as biochemical. The conditions noted are these: 0.2 ng/ml enzyme, 10 μM tripeptide substrate; given as a range. How it is done: as §1, §2

Data set [1] is described as follows: Rat pharmacokinetic studies. The format is in vivo. The conditions noted are these: male SD rats, IV 1 mg/kg, plasma. The method, then:
Male SD rats were fasted overnight. Compounds of the invention were dissolved in dimethyl acetamide at 10 times the final concentration, then Solutol HS 15 (BASF) was added to a final concentration of 10%. Finally 80% saline was added and vortexed to achieve a clear solution. For the IV dosing three animals were injected via the foot dorsal vein with 1 mg/kg compound. For the PO dosing 5 mg/kg of compound was delivered by oral gavage. Blood was collected via the tail vein into K2EDTA tubes at 5 minutes, 15 minutes, 30 minutes, 1 hour, 2 hours, 4 hours, 8 hours and 24 hours after dosing. The blood was centrifuged at 2000 g for 5 minutes at 4° C. to obtain plasma. The plasma was extracted with acetonitrile and the level of compound was analyzed by LC/MS/MS. The level of compound in plasma was calculated from a standard curve in rat plasma. The IV clearance and area under the curve were calculated using WinNonLin software. The dose adjusted area under the curve for the IV and oral dosing were used to calculate the oral bioavailability.

A further data set has as its target T4, HDAC1 (Homo sapiens, UniProt Q13547).
T4 construct: purchased BPS Biosciences
Put plainly: HDAC enzyme assay, HDAC1. The settings on record: 3.3 ng/ml enzyme, 16 μM tripeptide substrate; given as a range. The data set is classed as biochemical. How it is done:
as §1, §2

Data set [2] is described as follows: Mouse pharmacokinetic studies. The format is in vivo. The settings on record: male C57BL/6 mice, intraperitoneal 5 mg/kg; for Brain AUC: brain homogenate; for AUC / Kp: mouse, ip; for AUC: plasma; for Kp: from AUC values of brain and plasma, read-out: Brain/plasma ratio. How it is done: Male C57BL/6 mice were fasted overnight. Compounds were dissolved in dimethyl acetamide at 10 times the final concentration, then Solutol HS 15 (BASF) was added to a final concentration of 10%. Finally 80% saline was added and vortexed to achieve a clear solution. Fifteen animals were injected intraperitonealy with 5 mg/kg compound. Blood was collected by retro-orbital bleed at 5 minutes, 15 minutes, 30 minutes, 1 hour, 2 hours, 4 hours, 8 hours and 24 hours after dosing. At 5 minutes, 30 minutes, 1 hour and 4 hours after dosing three animals per time point were sacrificed and brains were removed. The blood was centrifuged at 2000 g for 5 minutes at 4° C. to obtain plasma. Brain samples were homogenized in PBS. The plasma and brain homogenate were extracted with acetonitrile and the level of compound was analyzed by LC/MS/MS. The level of compound in plasma was calculated from a standard curve in rat plasma and the level in brain was calculated from a standard curve in brain homogenate. The area under the curve in plasma and brain were calculated using WinNonLin software. The brain to plasma ratio was determined using the area under the curve values for the two compartments.

Molecules are shown by their SMILES.

T4 sequence (Q13547 whole entry): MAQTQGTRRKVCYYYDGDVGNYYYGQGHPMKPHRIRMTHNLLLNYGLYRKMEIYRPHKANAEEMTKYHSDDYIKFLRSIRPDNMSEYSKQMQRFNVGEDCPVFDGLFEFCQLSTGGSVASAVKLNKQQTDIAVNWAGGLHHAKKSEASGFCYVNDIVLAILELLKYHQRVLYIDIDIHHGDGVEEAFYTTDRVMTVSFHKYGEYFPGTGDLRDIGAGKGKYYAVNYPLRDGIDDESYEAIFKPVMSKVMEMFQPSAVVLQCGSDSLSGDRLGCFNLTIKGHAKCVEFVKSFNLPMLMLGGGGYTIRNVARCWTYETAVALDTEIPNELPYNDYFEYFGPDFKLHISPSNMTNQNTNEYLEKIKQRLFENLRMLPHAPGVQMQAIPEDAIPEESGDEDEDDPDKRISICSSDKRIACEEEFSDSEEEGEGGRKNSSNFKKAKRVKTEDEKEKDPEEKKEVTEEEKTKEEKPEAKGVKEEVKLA

Turning to `O=C(NO)c1ccc(NC2(c3ccccc3)CCCCC2)cc1` [Compound 010], the IC50 lay within 6 to 7 µM against HDAC3, 0.004 to 0.008 µM against HDAC6, 1.5 to 2 µM against HDAC2 and 1 to 2 µM against HDAC1. The same compound registered a clearance in data set [1] of 2 to 4 L/h/kg.
As to `O=C(NO)c1ccc(NC2(c3ccccc3)CC2)cc1` [Compound 009], the IC50 on HDAC3 is 0.4 to 0.5 µM; on HDAC6, 0.0005 to 0.0025 µM; at HDAC2 it was 0.25 to 0.35 µM; at HDAC1 it was 0.05 to 0.1 µM. For the same compound, in data set [1], the clearance fell in the range of 3 to 7 L/h/kg.
With `COc1ccc(OC)c(CNc2ccc(C(=O)NO)cc2)c1` [Compound 006], the IC50 was in the range of 0.9 to 1.1 µM against HDAC3, 0.03 to 0.04 µM on HDAC6, 0.9 to 1.1 µM at HDAC2 and 0.45 to 0.6 µM against HDAC1.
In the case of `COc1ccc(F)cc1CNc1ccc(C(=O)NO)cc1` [Compound 005], the IC50 against HDAC3 was in the range of 0.5 to 0.8 µM; at HDAC6 it was 0.001 to 0.006 µM; at HDAC2, 0.5 to 0.8 µM; against HDAC1, 0.5 to 0.8 µM. The compound further registered a clearance in data set [1] of 10 to 20 L/h/kg.
Turning to `O=C(NO)c1ccc(NCc2ccccc2)cn1` [Compound 012], in data set [2], the “Brain AUC” value was 0.1 to 0.15 µg·h/mL, the AUC is 0.075 to 0.125 µg·h/mL and the Kp was in the range of 1 to 3.
In the case of `O=C(NO)c1ccc(NC2(c3cc(F)ccc3F)CCOCC2)cc1` [Compound 008], the IC50 against HDAC3 was 1 to 1.1 µM; against HDAC6, 0.0001 to 0.001 µM; on HDAC2, 0.2 to 0.3 µM; at HDAC1, 0.15 to 0.25 µM. The compound also had a clearance in data set [1] of 5 to 10 L/h/kg.
In the case of `O=C(NO)c1ccc(NCc2ccccc2)cc1` [Compound 011], the IC50 lay within 1.2 to 1.3 µM at HDAC3, 0.015 to 0.025 µM on HDAC6, 0.8 to 0.9 µM against HDAC2 and 0.7 to 0.8 µM at HDAC1. In addition, the clearance in data set [1] lay in the range of 5.5 to 7 L/h/kg.
For the compound `O=C(NO)c1ccc(NCc2cc(F)ccc2F)cc1` [Compound 007], the IC50 is 0.7 to 0.8 µM on HDAC3, 0.004 to 0.008 µM on HDAC6, 0.45 to 0.6 µM at HDAC2 and 0.45 to 0.6 µM against HDAC1.
Turning to `O=C(NO)c1ccc(N(c2ccccc2)c2ccccc2)cn1` [Compound 013], in data set [2], the “Brain AUC” value is 0.6 to 0.8 µg·h/mL, the AUC is 0.15 to 0.25 µg·h/mL and the Kp lay within 2 to 6.
Consider `COc1ccc(Cl)cc1CNc1ccc(C(=O)NO)cc1` [Compound 001], for which the IC50 against HDAC3 lay within 0.2 to 0.4 µM; against HDAC6 it was 0.001 to 0.006 µM; against HDAC2, 0.2 to 0.4 µM; at HDAC1 it was 0.2 to 0.4 µM. Moreover, in data set [1], the clearance lay within 1 to 5 L/h/kg.
For `O=C(NO)c1ccc(NC(c2ccccc2)c2ccccc2)cn1` [Compound 002], in data set [2], the “Brain AUC” value fell in the range of 0.45 to 0.6 µg·h/mL, the AUC lay in the range of 0.2 to 0.25 µg·h/mL and the Kp lay in the range of 1 to 5.
Consider `O=C(NO)c1ccc(NCc2cc(Cl)ccc2Cl)cc1` [Compound 004], for which the IC50 against HDAC3 lay in the range of 0.1 to 0.2 µM; against HDAC6 it was 0.004 to 0.008 µM; at HDAC2, 0.1 to 0.2 µM; on HDAC1, 0.1 to 0.2 µM.
